Some test systems named below: NCI/ADR-RES ovarian; OVCAR-3 ovarian; A498 renal; EKVX NSCLC; SF-295 CNS; OVCAR-5 ovarian; NCI-H23 lung; MDA-MB-231 breast; SK-MEL-2 melanoma; SK-MEL-28 melanoma.
Assay in all cases: growth of human tumour cells (NCI), 48 h

TGI data for 13 molecules are collected here from PubChem BioAssay (NCI).

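Interpolation was linear, between the two tested concentrations surrounding the appropriate level; five concentrations were tested over 48 hours in 96-well plates. TGI: concentration producing complete growth inhibition.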

`C=C(Br)CN=CN(C)C`: the TGI in the assay on NCI/ADR-RES ovarian, in the assay on OVCAR-3 ovarian, in the assay on A498 renal, in the assay with EKVX NSCLC, with SF-295 CNS and in the assay with OVCAR-5 ovarian was over 100 µM in each case. Further, the TGI in the assay with NCI-H23 lung, with MDA-MB-231 breast, with SK-MEL-2 melanoma and in the assay on SK-MEL-28 melanoma was over 100 µM each time.
`Cn1c(=O)c2c(nc3[nH]c(=O)c(Br)cn32)n(C)c1=O`: the TGI in the assay on NCI/ADR-RES ovarian, in the assay with OVCAR-3 ovarian, with A498 renal, in the assay with EKVX NSCLC, in the assay with SF-295 CNS and with OVCAR-5 ovarian was over 100 µM throughout. The TGI in the assay on NCI-H23 lung, in the assay with MDA-MB-231 breast, in the assay on SK-MEL-2 melanoma and in the assay with SK-MEL-28 melanoma was over 100 µM in each case.
Turning to `O=C(O)c1c(CC(Cc2ccc3c(c2)CCC3)C(=O)O)ccc2c1CCC2` (stereo unspecified), the TGI in the assay on NCI/ADR-RES ovarian, in the assay with OVCAR-3 ovarian, with A498 renal, in the assay with EKVX NSCLC, in the assay on SF-295 CNS and with OVCAR-5 ovarian was over 100 µM throughout. Also, the TGI with NCI-H23 lung, in the assay with MDA-MB-231 breast, with SK-MEL-2 melanoma and in the assay with SK-MEL-28 melanoma was over 100 µM throughout.
Consider `COC(=O)c1c2c(cc3c1CC1(Cc4cc5c(c(C=O)c4C1)CCC5)C3)CCC2` (stereo unspecified), for which the TGI in the assay on NCI/ADR-RES ovarian is over 100 µM; in the assay on OVCAR-3 ovarian, 99.2 µM; with A498 renal, over 100 µM; in the assay on EKVX NSCLC it was over 100 µM; with SF-295 CNS, over 100 µM; in the assay on OVCAR-5 ovarian, over 100 µM. Also, the TGI with NCI-H23 lung was over 100 µM; in the assay with MDA-MB-231 breast, 91.7 µM; in the assay with SK-MEL-2 melanoma it was 72 µM; in the assay with SK-MEL-28 melanoma, over 100 µM.
As to `C=C1c2nc3ccccc3n2C=C(c2ccc(C)cc2)N1c1ccc(OC)cc1`, the TGI in the assay on NCI/ADR-RES ovarian is over 94.8 µM; in the assay with OVCAR-3 ovarian, over 100 µM; in the assay on A498 renal, over 100 µM; in the assay on EKVX NSCLC, over 100 µM; with SF-295 CNS, over 100 µM; in the assay on OVCAR-5 ovarian, over 100 µM. Also, the TGI with NCI-H23 lung, with MDA-MB-231 breast, in the assay with SK-MEL-2 melanoma and in the assay on SK-MEL-28 melanoma was over 100 µM each time.
With `COc1ccc(N2C(=O)C3c4[nH]c5c(C)cccc5c4C4CCC(C(C)C)CC4C3C2=O)cc1` (stereo unspecified), the TGI was 51.1 µM in the assay with NCI/ADR-RES ovarian; 28.4 µM with OVCAR-3 ovarian; 32.8 µM in the assay with A498 renal; 40.6 µM with EKVX NSCLC; 38.3 µM in the assay with SF-295 CNS; 29.7 µM in the assay on OVCAR-5 ovarian. Besides, the TGI in the assay on NCI-H23 lung was found to be 40.7 µM; in the assay on MDA-MB-231 breast it was 34.8 µM; with SK-MEL-2 melanoma it was 35.3 µM; in the assay with SK-MEL-28 melanoma, 31.5 µM.
Regarding `COc1cc(CCNC2=CC(=O)c3nc[nH]c3C2=O)ccc1O`, the TGI in the assay on NCI/ADR-RES ovarian is over 100 µM; with OVCAR-3 ovarian, 30.5 µM; in the assay with A498 renal, 71 µM; in the assay with EKVX NSCLC it was 47.4 µM; in the assay on SF-295 CNS, 96.4 µM; in the assay on OVCAR-5 ovarian it was 35.8 µM. Besides, the TGI in the assay on NCI-H23 lung is 48.6 µM; in the assay on MDA-MB-231 breast it was over 100 µM; in the assay on SK-MEL-2 melanoma, 52.1 µM; with SK-MEL-28 melanoma, 60.4 µM.
`CC1OC(OC2C(O[C@H]3CC[C@@]4(C)C(=CC[C@H]5[C@@H]6C[C@@H]7O[C@]8(CC[C@@H](C)CO8)[C@@H](C)[C@@H]7[C@@]6(C)CC[C@@H]54)C3)OC(CO)C(O)C2OC2OC(CO)C(O)C(O)C2O)C(O)C(O)C1O` (stereo partly specified): the TGI is 4.93 µM in the assay with NCI/ADR-RES ovarian; 2.69 µM in the assay on OVCAR-3 ovarian; 3.15 µM in the assay with A498 renal; over 21.9 µM with EKVX NSCLC; 4.41 µM with SF-295 CNS; over 20.6 µM in the assay with OVCAR-5 ovarian. In addition, the TGI in the assay with NCI-H23 lung came to 3.44 µM; in the assay with MDA-MB-231 breast, 2.98 µM; with SK-MEL-2 melanoma it was 3.45 µM; in the assay with SK-MEL-28 melanoma, 3.68 µM.
On to `O=C1Nc2ccccc2/C1=C\c1c(Cl)n(-c2ccccc2)c2ccccc12`, for which the TGI in the assay with NCI/ADR-RES ovarian worked out at 8.67 µM; in the assay with OVCAR-3 ovarian, 4.86 µM; in the assay with A498 renal, 22.2 µM; with EKVX NSCLC, 7.7 µM; in the assay with SF-295 CNS it was 15.6 µM; with OVCAR-5 ovarian it was 12.9 µM. Also, the TGI with NCI-H23 lung was 14 µM; with MDA-MB-231 breast, 13.7 µM; in the assay on SK-MEL-2 melanoma, 36.3 µM; with SK-MEL-28 melanoma, over 100 µM.
With `O=C(O)CSC(CC(=O)c1ccc(Cl)cc1)c1ccc(Cl)cc1` (stereo unspecified), the TGI in the assay on NCI/ADR-RES ovarian is over 100 µM; with OVCAR-3 ovarian it was 50 µM; with A498 renal, over 100 µM; with EKVX NSCLC, over 100 µM; in the assay with SF-295 CNS, over 100 µM; in the assay with OVCAR-5 ovarian it was over 100 µM. The TGI with NCI-H23 lung, in the assay on MDA-MB-231 breast and in the assay on SK-MEL-2 melanoma was over 100 µM in each case.
For the molecule `COc1ccc(-c2ccc(C(=O)C=P(c3ccccc3)(c3ccccc3)c3ccccc3)cc2)cc1`, the TGI with NCI/ADR-RES ovarian was 37.5 µM; in the assay with OVCAR-3 ovarian it was 20.1 µM; in the assay with A498 renal, 31.9 µM; with EKVX NSCLC it was 38.6 µM; with SF-295 CNS, 40.3 µM; in the assay on OVCAR-5 ovarian, 44.8 µM. The TGI in the assay on NCI-H23 lung worked out at 51 µM; with MDA-MB-231 breast, 30.7 µM; in the assay on SK-MEL-28 melanoma, 32 µM.
As to `O=C(Nc1ccccc1)N1CCN(C(=O)Nc2ccccc2)C1=S`, the TGI with NCI/ADR-RES ovarian was over 100 µM; with OVCAR-3 ovarian, over 100 µM; in the assay on A498 renal, 7.64 µM; with EKVX NSCLC, over 100 µM; in the assay on SF-295 CNS, 58.4 µM; in the assay with NCI-H23 lung it was 55.4 µM. Moreover, the TGI with MDA-MB-231 breast, with SK-MEL-2 melanoma and in the assay with SK-MEL-28 melanoma was over 100 µM each time.
For `COC1(CC[C@@H](C)COC2OC(CO)C(O)C(O)C2O)OC2C[C@H]3[C@@H]4CC[C@H]5C[C@@H](OC6OC(CO)C(OC7OC(CO)C(O)C(O)C7O)C(O)C6OC6OC(C)C(O)C(O)C6O)[C@H](O)C[C@]5(C)[C@H]4CC[C@]3(C)C2[C@@H]1C` (stereo partly specified), the TGI is over 20.6 µM in the assay on NCI/ADR-RES ovarian; 3.3 µM with OVCAR-3 ovarian; 3.38 µM in the assay with A498 renal; 4.52 µM in the assay on EKVX NSCLC; 3.28 µM in the assay on SF-295 CNS; 4.57 µM in the assay with OVCAR-5 ovarian. Besides, the TGI in the assay on MDA-MB-231 breast stood at 3.66 µM; in the assay on SK-MEL-2 melanoma, 3.9 µM; in the assay with SK-MEL-28 melanoma, 3.37 µM.
